Data on four compounds can be found in publication PMC12538274, “Paltusotine versus octreotide: different effects on radioligand uptake in neuroendocrine tumours” (Endocrine Oncology, 2025).

The test system of one data set is pituitary tumour cells. Set-up: method as in PMID 36810324. Conditions: compared to octreotide; cited from earlier work.
A further data set relates to SSTR2. Conditions: read-out: SSTR2 binding affinity, IC50; cited from earlier work.
The test system of data set [1] is NET patients with the carcinoid syndrome. Conditions: preliminary results, phase 2, NET patients with carcinoid syndrome; cited from earlier work. From the text:
A newly developed, orally-bioavailable non-peptide SSTR2 agonist, paltusotine, might simplify SSA therapy and is taken orally once daily ([10]). Paltusotine recently received FDA approval for acromegaly treatment based on data from two phase 3 trials ([…]-1 and […]-2/NCT05192382) ([11], [12]).

For data set [2], the system named is QGP-1 cells (human panNET). Nature of the data set: Cell Titer Blue cell viability assay, QGP-1. Conditions: 72 h, vs DMSO control. The format is cell-based. Here is the method:
(§1) The BON-1 (human panNET; Prof. R Göke, University of Marburg, Germany), NCI-H727 (human bronchopulmonary NET; ATCC, USA) and QGP-1 cell lines (human panNET; JCRB Cell Bank, Japan) were cultured as previously described ([15]). Moreover, a stable hSSTR2 over-expressing BON-1 cell clone (BON-1 SSTR2) was generated as previously described ([16], [17]).
(§2) GEP-NET cell lines and primary cultures were treated for 72 h with either paltusotine or octreotide, and dimethyl sulfoxide (DMSO) was used as control. Cell Titer Blue® cell viability assay (Promega, USA) was then performed as previously described ([15], [21]). Each experiment included 3–4 samples per drug concentration and patient. Cell line experiments were performed at least three times.

Data set [3] addresses T1, hSSTR2 (stable hSSTR2 over-expressing BON-1 cells, BON-1 SSTR2) (Homo sapiens, UniProt P30874).
T1 construct: expressed in transfected cells
Nature of the data set: 18F-SiTATE uptake assay. The format is cell-based.

A further data set concerns BON-1 SSTR2 cells. Nature of the data set: Cell Titer Blue cell viability assay, BON-1 SSTR2. The format is cell-based, human. Conditions: 72 h, vs DMSO control.
The subject of data set [4] is BON-1 cells (human panNET). Nature of the data set: Cell Titer Blue cell viability assay, BON-1. The format is cell-based. Conditions: 72 h, vs DMSO control. As for the experimental part: as §1, §2
The test system of data set [5] is β-arrestin recruitment (SSTR2, HEK293 cells). Set-up: method as in PMID 36810324. Conditions: cited from earlier work. The source says: (§3) While G-protein (GP)- and arrestin (ARRB)-mediated effects are induced by full SSTR2 agonists such as octreotide ([35]), biased agonists with GP-mediated effects but diminished ARRB signalling have been reported ([35]). Arrestins play an important role in SSTR internalisation and recycling/degradation ([35]). Zhao et al. compared the molecular binding structure of octreotide and paltusotine to SSTR2 and their molecular signalling, examined β-arrestin recruitment and SSTR2 internalisation/loss of SSTR2 expression on the cell surface of HEK293 cells ([34]).

For data set [6], the system named is SSTR2 on the cell surface of HEK293 cells. Set-up: method as in PMID 36810324. Conditions: cited from earlier work.
Text: as §3

The conditions of data set [7]: cited from earlier work. The source says:
Paltusotine is currently being investigated in a randomised phase 2 trial in NET patients with the carcinoid syndrome (NCT05361668), with promising preliminary results ([13]), and a phase 3 trial is currently being planned ([14]). […] Recently, paltusotine received FDA approval for the treatment of patients with acromegaly ([11], [12]).

In data set [8] the test system is forskolin-stimulated cAMP accumulation. Set-up: method as in PMID 36810324. Conditions: read-out: Inhibition of forskolin-stimulated cAMP accumulation, EC50; cited from earlier work.
Data set [9] relates to patient-derived GEP-NET primary cultures. Description: Cell Titer Blue cell viability assay, patient-derived GEP-NET primary cultures. The format is cell-based, human. Conditions: 72 h, n = 5. The source says: Fresh patient-derived GEP-NET primary cultures were established from surgically-derived patient tumours as previously described ([18]). […] Eleven of these were metastatic GEP-NETs, including six […] = 2 with the carcinoid syndrome) and eight […]. The use of primary tumour tissue as part of NeoExNET was approved by the Ethics Committee of LMU Munich (project number 152-10) and by the Cantonal Ethics Committee Zurich (reference number BASEC 2017-00950). […] GEP-NET cell lines and primary cultures were treated for 72 h with either paltusotine or octreotide, and dimethyl sulfoxide (DMSO) was used as control. Cell Titer Blue® cell viability assay (Promega, USA) was then performed as previously described ([15], [21]). […] Cell line experiments were performed at least three times.

The conditions of data set [10]: cited from earlier work. This is another data set of the same source.
In data set [11] the test system is NCI-H727 cells (human bronchopulmonary NET). Description: Cell Titer Blue cell viability assay, NCI-H727. The format is cell-based. Conditions: 72 h, vs DMSO control. As for the experimental part: as §1, §2
A further data set deals with SSTR1/3/4/5. Set-up: method as in PMID 11980628. Conditions: cited from earlier work. From the text: However, according to current guidelines as well as the FDA/EMA labelling instructions regarding Lutathera®, SSA therapy needs to be discontinued before PRRT ([7], [8], [9]). These recommendations stem from the fact that both SSAs and PRRT target the SSTR2. […] Moreover, long-acting octreotide and prolonged-release lanreotide maintain platea ...

Where two headings read alike, the source gives them in different places.

T1 sequence (P30874 whole entry): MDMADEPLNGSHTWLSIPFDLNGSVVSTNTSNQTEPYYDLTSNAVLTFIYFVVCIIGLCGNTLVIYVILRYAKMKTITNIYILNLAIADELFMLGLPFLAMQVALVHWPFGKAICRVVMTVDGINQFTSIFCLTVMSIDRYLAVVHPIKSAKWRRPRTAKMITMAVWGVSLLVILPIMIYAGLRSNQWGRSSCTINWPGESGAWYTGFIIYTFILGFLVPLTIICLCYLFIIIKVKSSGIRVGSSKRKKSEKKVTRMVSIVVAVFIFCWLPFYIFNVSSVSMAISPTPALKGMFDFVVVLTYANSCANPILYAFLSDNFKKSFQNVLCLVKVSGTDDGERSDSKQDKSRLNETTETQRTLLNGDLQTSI

Take `N#Cc1cccc(-c2ccc3ncc(-c4cc(F)cc(F)c4)c(N4CCC(N)CC4)c3c2)c1O` [paltusotine]: the Apoptotic rate entry in the data set on pituitary tumour cells is reported as “increased apoptotic rate compared to octreotide”. The IC50 in the data set with SSTR2 is 250 pM. In addition, the Symptom control entry in data set [1] is “improved symptom control”. The Tolerability entry in data set [1] is “good tolerability”. The “Effect on cell viability” value in data set [2] (QGP-1, 4 nM) is given as “overall no anti-tumour effects”; in data set [2] (QGP-1, 400 nM), “slight, significant decrease in cell viability”; in the data set on BON-1 SSTR2 cells (BON-1 SSTR2, 4 nM), “overall no anti-tumour effects”; with BON-1 SSTR2 cells (BON-1 SSTR2, 400 nM) it was “not found”; in data set [4] (BON-1, 4 nM) it was “overall no anti-tumour effects”; in data set [4] (BON-1, 400 nM), “slight, significant increase in viability”. The “Effect on cell viability” value in [11] (NCI-H727, 4 nM) was “overall no anti-tumour effects”; in data set [11] (NCI-H727, 400 nM), “not found”. Also, the “Effect on 18F-SiTATE radioligand uptake compared to the unblocked control” value is “no significant effects on cellular uptake” in [3] (73–254 nM (1,000×) and 146–508 nM (2,000×)); “no influence on radioligand binding compared to the unblocked control” in data set [3] (low, clinically-relevant concentrations 7.3–25.4 nM (100×)). Besides, the β-arrestin recruitment entry in data set [5] is reported as “much lower β-arrestin recruitment”. In data set [6], the SSTR2 internalisation/desensitisation result is “less SSTR2 internalisation/desensitisation”. In addition, in [7], the Oral bioavailability result is “good oral bioavailability”. Besides, the half-maximal effective concentration (EC50) in data set [8] is 2080 ± 1390 pM. Also, the “Overall effect on cell viability” value in data set [9] (100 nM) and in data set [9] (500 nM) was “overall slight anti-tumour effects” each time. In addition, in data set [10] (in vivo), the Plasma concentrations is 22 to 406 nM.

Take `C[C@@H](O)[C@@H]1NC(=O)[C@H](CCCCN)NC(=O)[C@@H](Cc2c[nH]c3ccccc23)NC(=O)[C@H](Cc2ccccc2)NC(=O)[C@@H](NC(=O)[C@H](N)Cc2ccccc2)CSSC[C@@H](C(=O)N[C@H](CO)[C@@H](C)O)NC1=O` [octreotide]: the Plasma concentrations result in data set [10] (subcutaneous injections, humans) is “up to 4 nM”.

With somatostatin, in the data set with SSTR2, the IC50 is 150 pM.

lanreotide: the “Binding affinity to SSTR1/3/4/5” value in the data set with SSTR1/3/4/5 is “reduced or no binding affinity”. The IC50 with SSTR2 is 540 pM.
